We go through one compound from patent publication US20080280911A1, “Cinnoline Compounds as Inhibitors of Phosphodiesterase Type IV (Pde4)” (Glaxo Group Limited, priority 2005, published 2008).

This experiment has as its target T1, PDE4B (human recombinant) enzyme (Homo sapiens, UniProt Q07343).
T1 construct: made in house; host or cells: Saccharomyces cerevisiae strain GL62 (PDE-deficient yeast), as described in WO 94/20079
Nature of the experiment: Inhibition of PDE4B catalytic activity, IMAP fluorescence polarisation (FP) assay. It is filed as biochemical. Conditions: inhibition of catalytic activity at PDE4B (human recombinant); FP assay described above or similar. From the text:
Human recombinant PDE4B, in particular the 2B splice variant thereof (HSPDE4B2B), is disclosed in WO 94/20079 and also in M. M. McLaughlin et al., “A low Km, rolipram-sensitive, cAMP-specific phosphodiesterase from human brain: cloning and expression of cDNA, biochemical characterisation of recombinant protein, and tissue distribution of mRNA”, J. Biol. Chem., 1993, 268, 6470-6476. For example, in Example 1 of WO 94/20079, human recombinant PDE4B is described as being expressed in the PDE-deficient yeast Saccharomyces cerevisiae strain GL62, e.g. after induction by addition of 150 uM CuSO4, and 100,000×g supernatant fractions of yeast cell lysates are described for use in the harvesting of PDE4B enzyme.
The ability of compounds to inhibit PDE catalytic activity was determined by IMAP Fluorescence Polarisation (FP) assay (Molecular Devices Ltd code: R8062) in 384-well format. […]
For the PDE3, PDE4B and PDE4D assays Fluorescein adenosine 3′,5′-cyclic phosphate (Molecular Devices Ltd code: R7091) was added to give ˜40 nM final concentration. […] The FP ratio of parallel to perpendicular light was measured using an Analyst™ plate reader (from Molecular Devices Ltd). […] Curves were analysed using ActivityBase and XLfit (ID Business Solutions Limited). Results were expressed as pIC50 values.
(Fluorescence polarisation rises when a labelled molecule tumbles more slowly, as on binding a larger partner.)

One may read the IC50 as the midpoint of a concentration-inhibition curve.

T1 sequence (Q07343 1-564 isoform Q07343-2): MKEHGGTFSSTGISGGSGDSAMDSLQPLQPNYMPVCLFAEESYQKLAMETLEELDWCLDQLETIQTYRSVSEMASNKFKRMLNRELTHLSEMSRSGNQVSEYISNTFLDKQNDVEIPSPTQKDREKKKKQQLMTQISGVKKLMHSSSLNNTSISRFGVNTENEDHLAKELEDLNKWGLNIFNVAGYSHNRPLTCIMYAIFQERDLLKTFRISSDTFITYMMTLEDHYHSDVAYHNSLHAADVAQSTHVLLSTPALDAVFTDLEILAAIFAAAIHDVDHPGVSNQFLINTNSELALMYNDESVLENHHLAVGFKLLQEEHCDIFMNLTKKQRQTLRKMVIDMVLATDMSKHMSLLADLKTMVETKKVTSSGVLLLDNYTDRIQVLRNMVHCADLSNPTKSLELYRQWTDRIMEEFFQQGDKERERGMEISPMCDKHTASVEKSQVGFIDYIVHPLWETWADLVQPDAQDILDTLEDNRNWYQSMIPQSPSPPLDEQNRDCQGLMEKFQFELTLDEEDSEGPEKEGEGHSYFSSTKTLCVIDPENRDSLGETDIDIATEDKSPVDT

For the compound `Cc1cc(S(C)(=O)=O)cc2c(Nc3cccc(C#N)c3)c(C(N)=O)nnc12` [Example 1, 4-[(3-Cyanophenyl)amino]-8-methyl-6-(methylsulfonyl)-3-cinnolinecarboxamide], the IC50 is roughly 0.1 nM.
